The source of these data is publication PMC10209615, “Pharmacological inhibition of LSD1 suppresses growth of hepatocellular carcinoma by inducing GADD45B” (MedComm, 2023).

Molecules are shown by their SMILES.

Data set [1] concerns 104 cancer‐related kinases. Briefly: Kinase activity detection (Eurofins), whole panel. The data set is classed as biochemical. Particulars: ZY0511 1 μM. Here is the method:
The activity of ZY0511 against 104 cancer‐related kinases was carried out by Eurofins Pharma Discovery Services (Celle Lévescault, France).

In data set [2] the test system is LSD1 knockout JHH7 cells. As to the kind of experiment: Proliferation of LSD1 knockout JHH7 cells after ZY0511. Particulars: ZY0511 treatment for 96 h. The data set is classed as cell-based, human. The protocol:
Cell viability was determined using Cell Counting Kit‐8 (CCK8; Dojindo) or 3‐(4, 5‐dimethylthiazol‐2‐yl)‐2,5‐diphenyltetrazoliumbromide (MTT, Sigma Aldrich) assay. […] Consequently, cell viability was determined using a microplate reader (Thermo Fisher) at 450 nm for CCK8 assay, or 570 nm for MTT assay, at different time points. The IC50 values and CI values were analyzed and calculated using GraphPad Prism 8 and CompuSyn (version 1.0; http://www.combosyn.com), respectively.

Data set [3] concerns Hep3B. Briefly: Apoptosis analysis (Annexin V, flow cytometry). The data set is classed as cell-based, human. Particulars: 48 h. The protocol: (§1) Cells were fixed using 70% ethanol and stained with a Cell Cycle Detection Kit (KeyGEN). For apoptosis analysis, cells were exposed to ZY0511 alone or in combination with DTP3 for 48 h. Cells were harvested and stained with PE Annexin V Apoptosis Detection Kit (BD). The cell cycle or apoptosis induction was detected by using a flow cytometer (Agilent NovoCyte). Results were assessed by NovoExpress software (Agilent NovoCyte).
For orientation: In flow cytometry, cells or beads pass a laser one at a time.

Data set [4] has as its system HepG2. As to the kind of experiment: Apoptosis analysis (Annexin V, flow cytometry). The data set is classed as cell-based, human. Particulars: HepG2, 48 h. Here is the method:
as §1

Data set [5] deals with Hep3B. As to the kind of experiment: MTT assay, ZY0511 and DTP3. It counts as cell-based. Particulars: Homo sapiens, 96 h, read-out: Inhibition rate. Here is the method: (§2) Cell viability was determined using Cell Counting Kit‐8 (CCK8; Dojindo) or 3‐(4, 5‐dimethylthiazol‐2‐yl)‐2,5‐diphenyltetrazoliumbromide (MTT, Sigma Aldrich) assay. A selection of HCC cells was exposed to gradient concentration of ZY0511 for 96–144 h, or exposed to other LSD1 inhibitors including SP2509, GSK2879552, and ORY1001 for 144 h, or exposed to DTP3, which enhanced the apoptosis induction function of GADD45B for 96 h in combination therapy. Consequently, cell viability was determined using a microplate reader (Thermo Fisher) at 450 nm for CCK8 assay, or 570 nm for MTT assay, at different time points. The IC50 values and CI values were analyzed and calculated using GraphPad Prism 8 and CompuSyn (version 1.0; http://www.combosyn.com), respectively.
Background: Tetrazolium dyes change colour on reduction, which living cells bring about.

In data set [6] the test system is HepG2. As to the kind of experiment: MTT assay, ZY0511 and DTP3. The following applies: Homo sapiens, HepG2, 96 h, read-out: Inhibition rate. The data set is classed as cell-based. The protocol: as §2
Data set [7] concerns Hep3B xenograft. As to the kind of experiment: Cell‐derived xenograft (CDX) model. The data set is classed as in vivo, nude mice. Particulars: 100 mg/kg i.p., 18 days. The protocol:
(§3) For CDX models, HCC cells (HepG2, Hep3B) were harvested, and cells suspension (5 × 10^6 − 1 × 10^7 cells per mouse) were subcutaneously injected into the hind flank region of nude mice. For PDX models, fresh HCC tissues obtained from West China Hospital were minced into 2–5 mm^3 sizes to build the PDX models. The HCC tissue fragments were transplanted into the hind flank region of NOD/SCID mice within 2 h. Once the tumor volume reached ∼2 cm^3, the PDX models were expanded.
(§4) When the tumor volume reached approximately 100 mm^3, CDX & PDX tumor‐bearing mice were randomly divided into groups: (1) blank solvent; (2) ZY0511 50 mg/kg per day, i.p.; (3) ZY0511 100 mg/kg per day, i.p.; and (4) combinatorial treatment of ZY0511 50 mg/kg with DTP3 30 mg/kg, per day, i.p. Tumor sizes and animal body weights were monitored every 3 days, and tumor volumes were calculated as 0.5 × length × width^2. TGI rate was calculated as (1 − tumor volume of treated group/tumor volume of control group) x 100%.

In data set [8] the test system is HepG2 xenograft. As to the kind of experiment: Cell‐derived xenograft (CDX) model. The data set is classed as in vivo, nude mice. The following applies: 100 mg/kg i.p., 18 days. The protocol:
as §3, §4

The nature of data set [9]: Body weight of tumor‐bearing mice (HepG2, Hep3B, PDX1, PDX2). The data set is classed as in vivo. The following applies: CDX and PDX models, compared with control. Here is the method: as §4
Data set [10] deals with PLC/PRF/5. Briefly: EdU incorporation assay. The following applies: PLC/PRF/5, 96 h.
Protocol: (§5) EdU assay was utilized to detect proliferating cells. […] EdU‐positive cells were detected by employing high‐throughput screening (HTS; Thermo Fisher), and the EdU incorporation rate was calculated.
In data set [11] the test system is Hep3B. Briefly: EdU incorporation assay. The following applies: 96 h.
Protocol: as §5

Turning to `O=C(N/N=C1\CCc2c(Cl)ccc(O)c21)c1cccc(S(=O)(=O)N2CCOCC2)c1` [ZY0511, (E)‐N'‐(2, 3‐dihydro‐1H‐inden‐1‐ylidene) benzohydrazides], the “effect against other kinases, including FGFR, VEGFR, and PDGFR” value in [1] is “no effect”. The “decrease of sensitivity of JHH7 cells to ZY0511 by LSD1 knockout” value in [2] came out at 20%. Further, the apoptotic rate in data set [3] is 6.98%; in data set [4], 6.49%. Also, the inhibition (as a rule, the relative decrease from the control value, in per cent) at 0.25 µM in data set [5] amounted to 31%; in data set [6] it was 47%. Moreover, the inhibition at 0.5 µM in data set [5] stood at 42%; in [6], 65%. Further, the inhibition at 1 µM is 49% in data set [5] and 79% in data set [6]. The inhibition at 2 µM in data set [5] came out at 61%; in [6] it was 80%. Moreover, the “tumor growth inhibition (TGI)” value in data set [7] worked out at 52.70%; in data set [8] it was 58.29%. The “body weight of mice” value in data set [9] was “did not change”. The results for the “inhibition rate of EdU‐positive cells” value in data set [10] and in [11] were 9.2% and 99.9%, respectively.
